Results: patent publication US10407466B2 (Apellis Pharmaceuticals, Inc., priority 2005, dated 2019)
Like-named read-outs stand apart in the source and are kept apart here. Marks after values point to notes of the source that are not given here. Bridge positions count the residues as written; N and C are the ends. Square brackets hold non-standard residues; d marks the D form. 2Nal = N[C@@H](Cc1ccc2ccccc2c1)C(=O)O

Columns and labels:
[1] = test system: choroidal neovascularization (CNV) in C57BL/6 mice; test: Laser-induced CNV in a mouse model, intravitreal injection; format: in vivo
Text: C57BL/6 mice (The Jackson Laboratory) were anesthetized with a mixture of ketamine/xylazine (8:1) and the pupils were dilated with a single drop of 1% tropicamide. Krypton red laser photocoagulation (50-μm spot size, 0.05 s duration, 250 mW) will be used to generate laser spots in surrounding the optic nerve by using a hand-held coverslip as a contact lens. Formation of a bubble at the laser spot indicated rupture of Bruch's membrane. Multiple laser spots were generated in each eye.
Different groups of mice were injected with different quantities of this molecule or of mouse albumin (as a control) to determine the effect of dosage on the efficacy and toxicity of VCP. Briefly, after anesthesia and dilation of the pupil, the anterior chamber was entered via the limbus with a 28-gauge needle to decompress the eye. Under an operating microscope, which allows visualization of the retina, a 32-gauge (blunt) needle was passed through a scleral incision, just behind the limbus, into the vitreous cavity.
Seven days after CNV induction incidence of CNV was determined. Briefly, the mice were perfused with a FITC-dextran (Sigma-Aldrich) solution just prior to sacrifice. After the eyes were excised and fixed for 1 h in 10% phosphate-buffered formalin, RPE-choroid-scleral flat mounts were prepared as follows. The cornea and the lens were removed and the neurosensory retina carefully dissected from the eyecup. Five radial cuts were from the edge of the eyecup to the equator; the sclera-choroidretinal pigment epithelium (RPE) complex was flat-mounted, with the sclera facing down, on a glass slide in Aquamount. The flat mounts were stained with an anti-elastin specific monoclonal antibody (Sigma-Aldrich) and then with a CY3-conjugated secondary antibody (Sigma-Aldrich) at a suitable concentration, e.g., at a 1/200 dilution of a 1.0 mg/ml stock solution. Mounts were observed under confocal microscopy (LSM510, Zeiss). The prominent neovascular growth stained green whereas the underlying elastin in the Bruch's membrane stained red within a laser spot. Images were analyzed with the image analysis software AxioVision (Zeiss). The amount of CNV was determined by measuring the total green-fluorescent surface area in each picture. A mean green-fluorescent area was obtained for the various groups and compared using student t-test for comparisons between groups and ANOVA for comparison among multiple groups. […] Deposition of a variety of different complement components is also measured using immunological techniques and/or RT-PCR.
Seven days after CNV induction, incidence of CNV was determined. Just prior to sacrifice, the mice were perfused with a FITC-dextran (Sigma-Aldrich) solution. After the eyes were excised and fixed in 10% phosphate-buffered formalin, RPE-choroid-scleral flat mounts were prepared and stained with an anti-elastin specific monoclonal antibody (Sigma-Aldrich) and then with a CY3-conjugated secondary antibody (Sigma-Aldrich). Mounts were observed under confocal microscopy (LSM510, Zeiss). The prominent neovascular growth stained green whereas the underlying elastin in the Bruch's membrane stained red within a laser spot. […] Images were analyzed with the image analysis software AxioVision (Zeiss). The amount of CNV was determined by measuring the total green-fluorescent surface area in each picture. A mean green-fluorescent area was obtained for the various groups and compared using student t-test for comparisons between groups and ANOVA for comparison among multiple groups. Results are described in Table 2 and in the graph in FIG. 4.

non-primate C3 = details: reported; cited from earlier work
[2] = in vivo; cited from earlier work
[3] = Half-life in vitro in the vitreous; format: in vitro ADME
Protocol: The inventors' calculations establish, for the first time, the feasibility of substantially inhibiting C3 activation at levels at or above those expected to be present in the vitreous of a subject with wet ARMD by sustained intravitreal delivery of amounts as little as 5 μg/day of a therapeutic agent, which amounts may, according to the invention, be delivered by intravitreal implant technology over prolonged periods of time (as described further below). The inventors' calculations also establish, for the first time, the feasibility of substantially inhibiting C3 activation at levels at or above those expected to be present in the vitreous of a subject with dry ARMD by sustained intravitreal delivery of amounts as low as 2 μg/day of a therapeutic agent, which amounts may be delivered over prolonged periods of time by intravitreal implant technology according to the present invention.

For “Ac-ICV(2-Nal)QDWGAHRCT-CONH2 (Ac-ICV[2Nal]QDWGAHRCT-NH2; disulfide 2-12 (inferred)) [Ac-V4(2-Nal)/H9A]”, the “mean area of CNV relative to either no treatment or administration of albumin” value ([1]; 30 μg intravitreal, 24 hrs after laser induction, seven days after CNV induction) was “statistically significant reduction”, the “effectiveness compared with VCP on a μg basis” value ([1]; 30 μg/eye, difference not statistically significant at these sample sizes) was “somewhat more effective than VCP” and the “development of CNV in an animal model” value ([1]; summary of Example 1) was “effective in significantly inhibiting the development of CNV”.

For `CC[C@H](C)[C@H](N)C(=O)N[C@H]1CSSC[C@@H](C(=O)N[C@H](C(N)=O)[C@@H](C)O)NC(=O)[C@H](CCCN=C(N)N)NC(=O)[C@H](Cc2cnc[nH]2)NC(=O)[C@H](Cc2cnc[nH]2)NC(=O)CNC(=O)[C@H](Cc2c[nH]c3ccccc23)NC(=O)[C@H](CC(=O)O)NC(=O)[C@H](CCC(N)=O)NC(=O)[C@H](C(C)C)NC(=O)[C@H](C(C)C)NC1=O` [compstatin], the “Mean Difference (I-J), FldAreaGreen” value ([1]; I = Compstatin 30 ug, J = VCP 30 ug, day 7) was −317.4, the “Mean Difference (I-J), FldAreaGreen” value ([1]; I = Mouse Albumin Control, J = test agent 30 ug/eye, day 7) was 3286* and the “Mean Difference (I-J), FldAreaGreen” value ([1]; I = No-treatment control, J = test agent 30 ug/eye, green-fluorescent CNV area, day 7, Tamhane) was 5195*. The “Mean Difference (I-J), FldAreaGreen” value ([1]; I = test agent 30 ug/eye, J = Mouse Albumin Control, day 7) was −3286*, the “Mean Difference (I-J), FldAreaGreen” value ([1]; I = test agent 30 ug/eye, J = No-treatment control, day 7) was −5195* and the “Mean Difference (I-J), FldAreaGreen” value ([1]; I = test agent 30 ug/eye, J = VCP 10 ug, day 7) was −5862*. The “affinity for non-primate C3 compared with human or non-human primate C3” value (non-primate C3) was “lower” and the half-life [2] was under 0.25 h.

With `CC[C@H](C)[C@H](NC(C)=O)C(=O)N[C@H]1CSSC[C@@H](C(=O)N[C@H](C(N)=O)[C@@H](C)O)NC(=O)[C@H](CCCNC(=N)N)NC(=O)[C@H](Cc2cnc[nH]2)NC(=O)[C@H](C)NC(=O)CNC(=O)[C@H](Cc2c[nH]c3ccccc23)NC(=O)[C@H](CC(=O)O)NC(=O)[C@H](CCC(N)=O)NC(=O)[C@H](Cc2cn(C)c3ccccc23)NC(=O)[C@H](C(C)C)NC1=O` [Ac-V4(1-MeW)/H9A] the half-life [3] was about 6.9 h.
